Source: PMC12057046, “Elucidation of short linear motif-based interactions of the MIT and rhodanese domains of the ubiquitin-specific protease 8” (Biology Direct, 2025)

Experiments:
Assay type in all cases: binding, human
USP8 MIT domain [1] = assay: SPOT array of predicted peptides from known interactors, USP8 MIT domain; conditions: for Percentage (%) normalized to highest intensity and corrected for background: SPOT array, GST-tagged MIT 100 µM, overnight 4 °C, chemiluminescence, highest intensity = DNAJB6; for Percentage (%): Supplementary Fig. 4B, normalized to the highest intensity and corrected for background
Description: To further assess the SLiM-based interactions of the USP8 MIT domain, we designed a peptide array tiling 24 potential binding sites in previously reported USP8 interactors. We used SLiMSearch to search for peptides that contain shorter or longer matches to the motif (Supplementary Table S4A). […] The DNAJB6_118 - 130 peptide was predicted as a binder based on a partial DFx{2,3}R motif. The DNAJB6-USP8 interaction is supported by previous GST-pulldown experiments and colocalization of the two proteins in male mouse germ cells, and the interaction is thought to be of importance to the protein quality control to yield functional spermatozoa. In the case of the CDH1_863 - 877 peptide it was predicted as USP8 MIT ligand based on the presence of an RFxxL motif. The previous support of the CDH1-USP8 interaction is based on proximity labelling mass spectrometry, and our results thus provide evidence for a binary interaction between the two proteins and define a binding site. To confirm that the motifs used to predict the interactions were of importance for binding we designed an alanine scanning peptide SPOT array analysis of the DNAJB6_118 - 130 and the CDH1_863 - 877 peptides. […] In summary, we find that the USP8 MIT domain binds to a MIM1-like motif that can be expressed by [[…]], as well as degenerate variants thereof. […] The membranes of predicted peptides were purchased by JPT Peptide Technologies (Berlin, Germany). The membranes were incubated with blocking buffer containing 5% skim milk in TBST (50 mM Tris, 150 mM NaCl pH 7.5, 0.05% Tween-20) for two hours at room temperature. The blocked membranes were incubated with GST-tagged proteins (100 μM for MIT domain and 150 μM for the Rhodanese domain) in blocking buffer overnight at 4 °C. After rinsed with TBST the membranes were incubated with HRP-conjugated anti-GST antibody (Cytiva, RPN1236; 1:3000 dilution) in blocking buffer for 1 h at 4 °C and subsequently rinsed with TBST to remove any excess antibody. The ECL reagent (Clarity Max Western ECL substrate, 1705062, BioRad) was used for chemiluminescence read-out with the ChemiDoc Imaging system (BioRad). The images were analysed with Fiji (ImageJ2 version 2.9.0). […] used to design the peptide arrays with known interactors predicted to contain the motifs. The background signal intensity was subtracted, and the corrected signal intensities were normalized to the positive control and presented as percentage.

USP8 MIT domain [2] = assay: Peptide-phage display-based deep mutational scanning (DMS), USP8 MIT domain; conditions: for DMS-derived binding motif: M13 phage, triplicate selections in biological replicates, NGS, PSSM
Outline: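 Four rounds of phage selection against immobilized GST-tagged bait (GST control pre-clearing) at 4 °C, using human disorderome or 16-mer deep mutational scanning library (all non-Cys substitutions), ≥3 replicates. Enriched pools sequenced by Illumina NGS; replicate-summed counts converted to averaged fractions and frequency PSSMs per wild-type peptide.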

USP8 MIT domain [3] = assay: Proteomic peptide-phage display (ProP-PD) selection against USP8 MIT domain; set-up: Confidence: scale not given here; conditions: for NGS counts (%): ProP-PD, human disorderome library, GST-tagged MIT bait, four rounds of selection, percent of NGS counts associated with each peptide, Fig. 1B; for max_counts: Total NGS counts; for Confidence: calculated based on four metrics: overlapping peptides, replicated peptides, motif match, peptide counts; for Counts: fraction of NGS counts for a selection; for Promiscuity: number of baits selections where the peptide has been observed, calculated on the domain level; for Replicates: number of screens against the bait protein in which the peptide has been found; for Specificity: proportion for the current bait of the total NGS read counts of the peptide for all baits screened with this library
Protocol: We explored the peptide-binding of the USP8 MIT domain by using the purified GST-tagged MIT domain as bait in proteomic peptide-phage display (ProP-PD) selections and a library designed to display the predicted unstructured regions of the human proteome. The peptide-coding regions of the binding-enriched phage pools were analysed by next-generation sequencing (NGS). After filtering for high confidence ligands, ten ligands remained (Fig. 1B; Supplementary Table S1). None of the ten identified protein-protein interactions had been previously reported, based on comparison with the information available in IntAct, HIPPIE and BioGrid (February 2025). Of the USP8 interacting proteins found, the D site-binding protein (DBP), which is a clock-controlled transcription factor, appears as an interesting ligand as USP8 has been reported to be involved in controlling the circadian rhythm. Also, the CCDC88A-encoded protein Girdin is an interactor of potential biological relevance as it is a scaffolding protein involved in the EGFR pathway which USP8 is known to regulate. At the motif level, there was no shared consensus motif among the ten peptide ligands. However, by manual inspection we noticed that four of the peptides contained a shared [LI]xxR[IY]xxL sequence, which appears to be a variation of the [DE]xxLxxRLxxL[KR] MIM1 motif described in the Eukaryotic Linear Motif resource (ELM) (Fig. 1B). We performed a SPOT array alanine scanning analysis in which peptides are synthesised on a membrane, and where each amino acid position of the peptide is mutated to alanine (or glycine if alanine is in the wild type peptide) to evaluate the effect of the amino acid residues in binding. We tested two peptides containing the apparent MIM1-like motif, one from Girdin (Girdin1192 − 1207) and one from the histone-lysine N-methyltransferase SETD1B (SETD1B492 − 507). […] AlphaFold3 (AF3) modelling of the four peptides with the variant MIM1 motif and the MIT domain docked the peptides with high confidence (ipTM scores: HIVEP1_741 − 756: 0.87, Girdin1192 − 1207: 0.85, MLPH481 − 496: 0.82, SETD1B492 − 507: 0.75) at the expected MIM1 binding pocket (Fig. 1D). […] However, the USP8 MIT selection was dominated (more than 94% of NGS counts) by two peptides that lack an apparent MIM1 motif. The two peptides were from the EF-hand calcium-binding domain-containing protein 12 (EFCAB12_1 − 16: […]) and from DBP (DBP116 − 131: […]) (Fig. 1B). […] In comparison to this, the EFCAB12_1 − 16 peptide shares a potential Dx[YF]xxxH[SG] motif with the DBP116 − 131 (Fig. 1B). […] The AF3 model of DBP116 − 131 peptide supports the interaction of D120 of the DBP116 − 131 peptide with the residues K74 and N71 in the MIT domain (Fig. 1G), emphasizing the significance of the aspartic acid at this position. […] Of them, two peptides (SYNE2_853 − 868 and PKNOX1_56 − 71) where placed in the same binding site as the Girdin and DBP peptides with high confidences by AF3 modelling (ipTM 0.92 and 0.74; Supplementary Fig. S3).
Four rounds of phage selections were carried out using the second generation human disorderome library or the constructed deep mutational scanning library. At least three individual replicates were used for each bait protein. 10 µg of GST-tagged proteins or GST control (diluted in PBS from the stock of proteins kept in the purification elution buffer) were immobilized in 100 µL PBS on a 96-well MaxiSorp (Nunc) plate overnight at 4 °C. The plates were incubated with blocking buffer (with 0.5% BSA in PBS) for 1 h at 4 °C followed by washing with 0.05% Tween 20 in PBS four times. The naïve phage library (10^11 CFU) was diluted in 1/5th volume PEG/NaCl (20% PEG-8000, 0.4 M NaCl) and 1X PBS, incubated on ice for 10 min and centrifuged at 10,000 [drawing 3] g for 10 min. The pellet was resuspended in the volume of PBS (100 µL/ well). […]

AGAALLALLAALCP [EGFR, Epidermal growth factor receptor peptide]
Percentage (%) normalized to highest intensity and corrected for background (USP8 MIT domain [1]): 6%
Percentage (%) (USP8 MIT domain [1]): 6%

APLLCLALLPALAA [NOTCH1, Neurogenic locus notch homolog protein 1 peptide]
Percentage (%) normalized to highest intensity and corrected for background (USP8 MIT domain [1]): 2%
Percentage (%) (USP8 MIT domain [1]): 2%

APPSLLLLLLAQLV [FZD5, Frizzled-5 peptide]
Percentage (%) normalized to highest intensity and corrected for background (USP8 MIT domain [1]): 24%
Percentage (%) (USP8 MIT domain [1]): 24%

DDLSRRFEELKKKT [IST1, IST1 homolog peptide]
Percentage (%) normalized to highest intensity and corrected for background (USP8 MIT domain [1]): 5%
Percentage (%) (USP8 MIT domain [1]): 5%

DKEIDLELLQDLME [BIRC6, Baculoviral IAP repeat-containing protein 6 peptide]
Percentage (%) normalized to highest intensity and corrected for background (USP8 MIT domain [1]): 12%
Percentage (%) (USP8 MIT domain [1]): 12%

DPSNNFRLHNGRS [CFLAR, CASP8 and FADD-like apoptosis regulator peptide]
Percentage (%) normalized to highest intensity and corrected for background (USP8 MIT domain [1]): 31%
Percentage (%) (USP8 MIT domain [1]): 31%

GELLLLSLLLLLEP [PDGFRB, Platelet-derived growth factor receptor beta peptide]
Percentage (%) normalized to highest intensity and corrected for background (USP8 MIT domain [1]): -3.37%
Percentage (%) (USP8 MIT domain [1]): -3%

KEPDALTLLAPAAG [HIF1A, Hypoxia-inducible factor 1-alpha peptide]
Percentage (%) normalized to highest intensity and corrected for background (USP8 MIT domain [1]): -0.189%
Percentage (%) (USP8 MIT domain [1]): 0%

MDDDYEAYHSLFLSLL [EFCAB12_1 − 16]
PSSM score, enrichment_relative_to_wt (USP8 MIT domain [2]; EFCAB12 MDDDYEAYHSLFLSLL, library USP8_DMS, days 2,3, quotient of wild type and mutant frequencies per column, highest divided by lowest): 1
DMS-derived binding motif (USP8 MIT domain [2]): [DE]Fx{2,3}R[FY]xxLL
NGS counts (%) (USP8 MIT domain [3]): 78.22%
max_counts (USP8 MIT domain [3]): 3851
Confidence (USP8 MIT domain [3]): 3
Counts (USP8 MIT domain [3]): 0.08013
Promiscuity (USP8 MIT domain [3]): 6
Replicates (USP8 MIT domain [3]): 6
Specificity (USP8 MIT domain [3]): 0.9605

MDLLFGRRKTPEELL [CHMP2A, Charged multivesicular body protein 2a peptide]
Percentage (%) normalized to highest intensity and corrected for background (USP8 MIT domain [1]): -8%
Percentage (%) (USP8 MIT domain [1]): -8%

MVSWGRFICLVVVTM [FGFR2, Fibroblast growth factor receptor 2 peptide]
Percentage (%) normalized to highest intensity and corrected for background (USP8 MIT domain [1]): 2.8%
Percentage (%) (USP8 MIT domain [1]): 3%

NKTLEYKIEILEKT [KIF23, Kinesin-like protein KIF23 peptide]
Percentage (%) normalized to highest intensity and corrected for background (USP8 MIT domain [1]): 7%
Percentage (%) (USP8 MIT domain [1]): 7%

PPSSSLELLASLTP [PTPN23, Tyrosine-protein phosphatase non-receptor type 23 peptide]
Percentage (%) normalized to highest intensity and corrected for background (USP8 MIT domain [1]): -7%
Percentage (%) (USP8 MIT domain [1]): -7%

PQYTNLGLLNSMDQ [TP63 A14, Tumor protein 63 peptide, array position A14]
Percentage (%) normalized to highest intensity and corrected for background (USP8 MIT domain [1]): 8%
Percentage (%) (USP8 MIT domain [1]): 8%

QAAIALSLLESPKI [USP28, Ubiquitin carboxyl-terminal hydrolase 28 peptide]
Percentage (%) normalized to highest intensity and corrected for background (USP8 MIT domain [1]): 1.29%
Percentage (%) (USP8 MIT domain [1]): 1%

QAIYRHPLFPLLALLF [PKNOX1_56 − 71, Homeobox protein PKNOX1 peptide]
NGS counts (%) (USP8 MIT domain [3]): 0.95%
max_counts (USP8 MIT domain [3]): 107
Confidence (USP8 MIT domain [3]): 2
Counts (USP8 MIT domain [3]): 0.001294
Promiscuity (USP8 MIT domain [3]): 21
Replicates (USP8 MIT domain [3]): 1
Specificity (USP8 MIT domain [3]): 0.5

QGPALRYFQLPPRAA [SHANK1 B6, SHANK1 peptide, array position B6]
Percentage (%) normalized to highest intensity and corrected for background (USP8 MIT domain [1]): 7%
Percentage (%) (USP8 MIT domain [1]): 7%

RFVVALVLLNVAAA [TGOLN2, Trans-Golgi network integral membrane protein 2 peptide]
Percentage (%) normalized to highest intensity and corrected for background (USP8 MIT domain [1]): -4.72%
Percentage (%) (USP8 MIT domain [1]): -5%

RGVLALALLALALC [RNF149, E3 ubiquitin-protein ligase RNF149 peptide]
Percentage (%) normalized to highest intensity and corrected for background (USP8 MIT domain [1]): 3%
Percentage (%) (USP8 MIT domain [1]): 3%

SEVSDIESRIAALRAA [MLPH481 − 496, melanophilin peptide]
DMS-derived binding motif (USP8 MIT domain [2]): [DE]Fx{2,3}R[FY]xxLL
NGS counts (%) (USP8 MIT domain [3]): 0.52%
max_counts (USP8 MIT domain [3]): 33
Confidence (USP8 MIT domain [3]): 3
Counts (USP8 MIT domain [3]): 0.000511
Promiscuity (USP8 MIT domain [3]): 2
Replicates (USP8 MIT domain [3]): 3
Specificity (USP8 MIT domain [3]): 0.9365

TKTLEERISKLISDNE [HIVEP1_741 − 756, Zinc finger protein 40 peptide]
NGS counts (%) (USP8 MIT domain [3]): 0.21%
max_counts (USP8 MIT domain [3]): 19
Confidence (USP8 MIT domain [3]): 2
Counts (USP8 MIT domain [3]): 0.001178
Promiscuity (USP8 MIT domain [3]): 1
Replicates (USP8 MIT domain [3]): 2
Specificity (USP8 MIT domain [3]): 1

VLSKRKGGNVGKSKRD [ERVK-21, Endogenous retrovirus group K member 21 Env polyprotein peptide 676-691]
NGS counts (%) (USP8 MIT domain [3]): 0.16%
max_counts (USP8 MIT domain [3]): 18
Confidence (USP8 MIT domain [3]): 2
Counts (USP8 MIT domain [3]): 0.000837
Promiscuity (USP8 MIT domain [3]): 4
Replicates (USP8 MIT domain [3]): 1
Specificity (USP8 MIT domain [3]): 0.5806
